{"source": "patent US4963570A", "about": "“1-(acetylaminophenyl)-2-aminopropanone derivatives and pharmaceutical compositions thereof” (Laboratoire L. Lafon, priority 1983, dated 1990)", "key": {"[1]": {"test_system": "peripheral α-adrenergic stimulation", "test": "signs of peripheral adrenergic stimulation", "format": "in vivo, mouse; rat", "details": "i.p.; dose not stated", "description": "(§1) Groups of three animals are observed before and then 0.25 hour, 0.50 hour, 1 hour, 2 hours, 3 hours and 24 hours after the administration of CRL 41 224."}, "mice [2]": {"test_system": "mice", "test": "interaction with apomorphine in mice", "format": "in vivo, mouse", "details": "i.p.; dose not stated", "description": "Groups of 6 mice receive CRL 41 224 0.5 hour before the subcutaneous injection of 1 or 16 mg/kg of apomorphine."}, "mice [3]": {"test_system": "mice", "test": "interaction with barbital", "format": "in vivo, mouse", "details": "i.p.; dose not stated", "description": "Half an hour after the administration of CRL 41 224, groups of 10 mice receive an intraperitoneal injection of barbital (220 mg/kg)."}, "mice [4]": {"test_system": "mice", "test": "interaction with reserpine", "format": "in vivo, mouse", "details": "i.p.; dose not stated", "description": "Four hours after the intraperitoneal injection of 2.5 mg/kg of reserpine, groups of 6 mice receive CRL 41 224."}, "mice [5]": {"test_system": "mice", "test": "interaction with oxotremorine", "format": "in vivo, mouse", "details": "i.p.; dose not stated", "description": "CRL 41 224 is administered to groups of 6 mice 0.5 hour before the intraperitoneal injection of 0.5 mg/kg of oxotremorine."}, "[6]": {"test_system": "White New Zealand gravid female rabbits", "test": "teratogenic study", "format": "in vivo, rabbit"}, "rats [7]": {"test_system": "rats", "test": "action on stereotypies in rats (α-methyltyrosine, haloperidol, reserpine)"}, "mice [8]": {"test_system": "mice", "test": "overall behavior and reactivities in mice", "format": "in vivo, mouse", "details": "mice, i.p.; dose not stated", "description": "as §1"}, "rats [9]": {"test_system": "rats", "test": "interaction with apomorphine in rats", "format": "in vivo, rat", "details": "i.p., dose not stated", "description": "CRL 41 224 is administered to groups of 6 rats 0.5 hour before the subcutaneous injection of 0.5 mg/kg of apomorphine."}, "mice [10]": {"test_system": "mice", "test": "toxicity to grouped mice compared with isolated mice", "format": "in vivo, mouse"}, "mice [11]": {"test_system": "mice", "test": "interaction with barbital", "format": "in vivo, mouse", "details": "gastric route"}, "male mice [12]": {"test_system": "male mice", "test": "interaction with proadifen: motility", "format": "in vivo, mouse", "description": "(§2) Two series of experiments were carried out. In the first one, male mice (12 per dose, 12 control animals) were administered per I.P. route (i) with proadifen (75 mg/kg) at T-3 h, then (ii) with CRL 41 152 at T-0.5 h. At T=0 the mice were placed in actimeters, where their motility was recoded for 0.5 h. In the second one male mice (12 per dose, 12 control animals) were administered with proadifen and CRL 41 152 as indicated hereinabove, then subcutaneously with apomorphine (16 mg/kg) at T=0 in order to appreciate the potential variation of the hypothermia induced by apomorphine.\n(§3) In these two series CRL 41 152, in solution in distilled water, was administered per I.P. route to male mice in a volume of 20 ml/kg."}, "[13]": {"test": "water solubility of the product", "format": "physicochemical", "description": "The 39 g of 1-(4-acetylaminophenyl)-2-chloropropanone thus obtained are dissolved in 200 ml of isopropylamine. The resulting reaction medium is heated under reflux for 6 hours. The excess isopropylamine is evaporated off in vacuo. The evaporation residue, which is in the form of a viscous oil, is taken up with 200 ml of anhydrous ethanol and the hydrochloride is recipitated by means of a stream of HCl gas."}, "rats [14]": {"test_system": "rats", "test": "interaction with amphetamine", "format": "in vivo, rat", "details": "rats, i.p.; dose not stated", "description": "Amphetamine (2 mg/kg) is injected intraperitoneally into groups of 6 rats 30 minutes after the administration of CRL 41 224."}, "mice [15]": {"test_system": "mice", "test": "motility reduced by hypoxic aggression", "format": "in vivo, mouse", "details": "i.p., dose not stated", "description": "Half an hour after they have received CRL 41 224, the mice (10 per dose, 20 control animals) are subjected to acute hypobaric anoxia [pressure reduction of 600 mm Hg (i.e. about 8×10^4 Pa) in 90 seconds; release of vacuum in 45 seconds] and are then placed in an actimeter, where their motility is recorded for 10 minutes."}, "male mice [16]": {"test_system": "male mice", "test": "interaction with proadifen: hypothermia induced by apomorphine", "format": "in vivo, mouse", "description": "as §2, §3"}, "man": {"test_system": "man", "test": "clinical trials", "format": "in vivo, human", "details": "man, tablets or gelatine capsules 5 to 75 mg, 1 to 3 per day"}, "CNS": {"test_system": "CNS", "test": "overall neuropsychopharmacological (CNS) profile", "format": "in vivo, mouse; rat", "details": "i.p., mice and rats; dose not stated; hydrochloride", "description": "The neuropsychopharmacological study of CRL 41 219 was carried out as indicated above for CRL 41 224.\nThe neuropsychopharmacological study of CRL 41 220 was carried out in accordance with the procedures given above for CRL 41 224."}, "mice [17]": {"test_system": "mice", "test": "motility reduced by habituation to the enclosure", "format": "in vivo, mouse", "details": "i.p., dose not stated", "description": "After they have stayed in the actimeters for 18 hours, the mice (6 per dose, 12 control animals) receive CRL 41 224. They are immediately returned to their respective enclosures and, half an hour later, their motility is recorded for 30 minutes."}, "male mice [18]": {"test_system": "male mice", "test": "influence of catecholamines on hyperactivity in mice", "format": "in vivo, mouse", "description": "A further series of assays was carried out on mice according to the teaching of S. L. HANDLEY et al. \"Influences of catecholamines on dexamphetamine, induced changes in locomotor activity\", Psychopharmacology 58, 283-288 (1978), in order to observe a potential influence of dopamine or moradrenaline on the hyperactivity induced by CRL 41 152.\nAfter a habituation period of 1.5 h to the actimeters, male mice (grouped into batches of 10 animals each and a control batch of 20 animals) were administered (under slight anesthesia with ether) per intraventriculocerebral injection (i.e. I.V.C. route) with (i) either 10 μg of noradrenaline, or 10 μg of dopamine or 10 μl (0.5 μl/second) of saline solution, then (ii) 5 minutes later, with CRL 41 152 (in solution in distilled water) per I.P. route in a volume of 20 ml/kg, immediately before replacing the mice in the actimeters vherein their motility was recorded for 1 hour by measuring the number of crossed rays per period of 5 minutes).\nBatches receiving CRL 41 152 per I.P. route with noradreanaline or dopamine per I.V.C. route were compared with (i) the control batch receiving the saline solution per I.V.C. route then distilled water per I.P. route, and (ii) batches receiving only noradrenaline, dopamine (per I.V.C. route) or CRL 41 152 (per I.P. route)."}, "mice [19]": {"test_system": "mice", "test": "four plate test, traction and electric shock", "format": "in vivo, mouse", "details": "i.p.; dose not stated", "description": "The test is performed on groups of 10 mice 30 minutes after the administration of CRL 41 224."}, "mice [20]": {"test_system": "mice", "test": "action on the spontaneous motility (actimeter)", "format": "in vivo, mouse", "details": "mice, i.p.; dose not stated", "description": "0.5 hour after they have received CRL 41 224, the mice (6 per dose, 12 control animals) are placed in an actimeter, where their motility is recorded for 30 minutes."}, "rats [21]": {"test_system": "rats", "test": "overall behavior and reactivities in rats", "format": "in vivo, rat", "details": "i.p., dose not stated, hydrochloride", "description": "as §1"}, "mice [22]": {"test_system": "mice", "test": "action on the behavioral despair", "format": "in vivo, mouse", "details": "i.p., dose not stated", "source_text": "Half an hour after they have received CRL 41 224, groups of 6 mice are placed in a beaker filled with water to a height of 6 cm. The total period of immobility between the 2nd and 6th minutes following immersion is noted."}, "[23]": {"details": "proadifen 75 mg/kg i.p. then CRL 41 152"}}, "note": "Entries after “also recorded” stand apart in the source; their conditions may differ. Counter-ions that a name gives are not always drawn.", "data": [{"smiles": "CC(=O)Nc1ccc(C(=O)C(C)NC(C)C)cc1", "note": "(centres unmarked) [CRL 41 152, 1-(4-acetylaminophenyl)-2-isopropylaminopropanone hydrochloride]", "values": [{"measurement": "exophthalmos", "setting": "[1]", "value": "absent"}, {"measurement": "mydriasis", "setting": "[1]", "value": "mydriasis"}, {"measurement": "peripheral adrenergic stimulation, overall", "setting": "[1]", "value": "effects which may reflect peripheral adrenergic stimulation"}, {"measurement": "salivation", "setting": "[1]", "value": "absent"}, {"measurement": "hypothermia induced by apomorphine", "setting": "mice [2]", "value": "antagonism of the hypothermia induced by apomorphine"}, {"measurement": "sleep induced by barbital", "setting": "mice [3]", "value": "antagonism of the sleep induced by barbital"}, {"measurement": "hypothermia induced by reserpine", "setting": "mice [4]", "value": "antagonism of the hypothermia induced by apomorphine, oxotremorine or reserpine"}, {"measurement": "ptosis induced by reserpine", "setting": "mice [4]", "value": "antagonism of the ptosis induced by reserpine"}, {"measurement": "hypothermia induced by oxotremorine", "setting": "mice [5]", "value": "antagonism of the hypothermia induced by apomorphine, oxotremorine"}, {"measurement": "trembling caused by oxotremorine", "setting": "mice [5]", "value": "antagonism of the trembling caused by oxotremorine"}, {"measurement": "teratogenic effect", "setting": "[6]", "value": "does not exhibit any harmful teratogenic effect"}, {"measurement": "effect of haloperidol on induced stereotypies", "setting": "rats [7]; haloperidol 0.25 mg/kg i.p. 0.5 h before", "value": "almost totally prevents the appearance of stereotypies"}, {"measurement": "effect of haloperidol on induced stereotypies", "setting": "rats [7]; haloperidol 0.5 mg/kg i.p. 0.5 h before", "value": "totally inhibits the said stereotypies"}, {"measurement": "suppression of induced stereotype movements by prior injection of alpha-methyltyrosine", "setting": "rats [7]; i.p.", "value": "not suppressed"}, {"measurement": "effect of reserpine on induced stereotypies", "setting": "rats [7]; reserpine 4 mg/kg i.p. 24 hours before", "value": "only a moderate reduction of the stereotypies"}, {"measurement": "inhibition by α-methyltyrosine of the induced stereotypies", "setting": "rats [7]; α-methyltyrosine 128 mg/kg i.p. 2.5 h before 30 mg/kg i.p. CRL 41 152", "value": 4, "unit": "%"}, {"measurement": "excitation in mice", "setting": "mice [8]", "value": "excitation with hyperreactivity in mice"}, {"measurement": "stereotypies induced by apomorphine", "setting": "rats [9]", "value": "potentiation of the stereotypies induced by apomorphine"}, {"measurement": "toxicity to grouped mice compared with isolated mice", "setting": "mice [10]", "value": "do not increase the toxicity to grouped mice"}, {"measurement": "interaction with barbital, kinetic study", "setting": "mice [11]", "value": "clearly showed the interest of CRL 41 152 as awakening agent"}, {"measurement": "spontaneous motility", "setting": "male mice [12]; i.p., administered alone", "value": "increases the spontaneous motility in mice"}, {"measurement": "effect of proadifen on the induced hypermotility", "setting": "male mice [12]; [23]", "value": "does not cause a distinct reduction of the hypermotility"}, {"measurement": "water solubility", "setting": "[13]", "value": "very water-soluble"}, {"measurement": "stereotypies induced by amphetamine", "setting": "rats [14]", "value": "potentiation of the stereotypies induced by apomorphine or amphetamine"}, {"measurement": "motor recovery after hypoxic aggression", "setting": "mice [15]", "value": "an improvement in the motor recovery in mice after acute hypoxia"}, {"measurement": "hypothermia induced by apomorphine", "setting": "male mice [16]; i.p., 8 and especially 32 mg/kg, apomorphine 16 mg/kg s.c.", "value": "antagonism vis-a-vis the hypothermia induced by apomorphine"}, {"measurement": "righting behaviour and stereotypies induced by apomorphine", "setting": "male mice [16]; i.p., apomorphine 16 mg/kg s.c.", "value": "Neither proadifen, nor CRL 41 152, nor their combination modify the righting behaviour"}, {"measurement": "effect of proadifen on antagonism vis-a-vis the hypothermic effect of apomorphine", "setting": "male mice [16]; [23]", "value": "does block the antagonism"}, {"measurement": "clinical result: depressions, hypersomnia and GELINEAU's disease", "setting": "man", "value": "excellent drug for treating depressions in man as well as hypersomnia and GELINEAU's disease"}, {"measurement": "overall action on the CNS", "setting": "CNS", "value": "stimulant effects; also recorded: antidepressant effects"}, {"measurement": "motor activity after habituation to the enclosure", "setting": "mice [17]", "value": "a resumption in the motor activity of mice accustomed to their enclosure"}, {"measurement": "effect of prior dopamine on the motor activity caused", "setting": "male mice [18]; dopamine 10 μg I.V.C.", "value": "did not modify the motor activity caused by CRL 41 152"}, {"measurement": "motor activity", "setting": "male mice [18]; i.p., 8 mg/kg, one-hour recording", "value": "distinct statistically significant increase in motor activity"}, {"measurement": "effect of prior noradrenaline on the motor stimulant effect", "setting": "male mice [18]; noradrenaline 10 μg I.V.C.", "value": "distinct statistically significant decrease in the motor stimulant effect"}, {"measurement": "convulsant effects of electric shock", "setting": "mice [19]", "value": "anticonvulsant effects"}, {"measurement": "spontaneous motility / motor activity", "setting": "mice [20]", "value": "an increase in the spontaneous motility in mice"}, {"measurement": "stereotype movements in rats", "setting": "rats [21]", "value": "stereotype movements in rats; also recorded: induces stereotype movements"}, {"measurement": "period of immobility or \"despair\"", "setting": "mice [22]", "value": "a reduction in the immobility"}]}]}
